Laboratory results: US9439432B2, “Phenylisoxazoline-based compound having herbicidal activity and use thereof” (MOGHU RESEARCH CENTER LTD, priority 2011, dated 2016)

What follows are compounds tested on Echinochloa crusgalli (assay: Post-emergence treatment, herbicidal efficacy on barnyardgrass). Details: post-emergence, 125 g/ha, 4 weeks after spraying, scale 0 to 10.
Assay type: in vivo
Procedure: (§1) A rectangular plastic pot having a surface area of 300 cm^2 was filled with sandy loam soil and mixed bed soil which were mixed at a ratio of 1:1, and then, barnyardrass (Echinochloa crusgalli), large crabgrass (Digitaria sanguinalis), blackgrass (Alopecurus myosuroides), and annual bluegrass (Poa annua), which are grass weeds, were seeded thereto. In a pot that was prepared as described above, seeds of corn, soybean, cotton, wheat, and rice were seeded. The pots were irrigated, and one day after, chemicals were sprayed thereto. The spraying was performed by using a track sprayer (R&D Sprayer, USA) equipped with a Teejet 8002 (Spraying Systems Co., USA) nozzle, and a spraying amount was adjusted at 300 L/ha. A spraying solution was prepared by dissolving test materials or references in acetone and adding the same amount of 0.2%(v/v) tween 20 aqueous solution thereto. Application rates were 500, 250, 125, and 62.5 g/ha. The pots were placed in a greenhouse in which during day, the temperature was maintained at a temperature of 25 to 30° C., and during night, the temperature was maintained at a temperature of 15 to 25° C., and the pots were periodically irrigated. Four weeks after the spraying the test materials or References, effects and phytotoxicity of the respective weeds and crops were evaluated in a scale of 0 to 10 (0: no effects, 10: complete death), and results thereof are shown in Table 4 below.
(§2) Pots containing crops and weeds were prepared in the same manner as in Example 7, and then, in the second week in which crops and weeds entered into about 3 leaf stage, the test materials and the references were sprayed thereto in the same manner as described above. The rates were 1,000, 500, 250, and 125 g/ha. Four weeks after the spraying of the test materials or the references, herbicidal efficacy and phytotoxicity to the respective weeds and crops were evaluated in a scale of 0 to 10 (0: no effects, 10: complete death).

SMILES	Herbicidal efficacy, Echinochloa crusgalli
CC1(COCc2ccccc2F)CC(c2ccccc2[N+](=O)[O-])=NO1 (stereo not drawn) [Reference A]	0

Same assay, conditions: post-emergence, 250 g/ha, 4 weeks after spraying, scale 0 to 10

SMILES	Herbicidal efficacy, Echinochloa crusgalli
CC1(COCc2ccccc2F)CC(c2ccccc2[N+](=O)[O-])=NO1 (stereo not drawn) [Reference A]	2

Same assay, conditions: post-emergence, 500 g/ha, 4 weeks after spraying, scale 0 to 10

SMILES	Herbicidal efficacy, Echinochloa crusgalli
CC1(COCc2ccccc2F)CC(c2ccccc2[N+](=O)[O-])=NO1 (stereo not drawn) [Reference A]	5

Same assay, conditions: post-emergence, 1,000 g/ha, 4 weeks after spraying, scale 0 to 10

SMILES	Herbicidal efficacy, Echinochloa crusgalli
CC1(COCc2ccccc2F)CC(c2ccccc2[N+](=O)[O-])=NO1 (stereo not drawn) [Reference A]	7

These compounds were tested on Wheat (assay: Post-emergence treatment, phytotoxicity to wheat). Details: post-emergence (about 3 leaf stage), 1,000 g/ha, 4 weeks after spraying, scale 0 to 10 (0: no effects, 10: complete death).
Assay type: in vivo
Procedure: as §1, §2

SMILES	Phytotoxicity, Wheat
CC1(COCc2ccccc2F)CC(c2ccccc2[N+](=O)[O-])=NO1 (stereo not drawn) [Reference A]	0

These compounds were tested on Soybean (assay: Post-emergence treatment, phytotoxicity to soybean). Details: post-emergence (about 3 leaf stage), 1,000 g/ha, 4 weeks after spraying, scale 0 to 10 (0: no effects, 10: complete death).
Assay type: in vivo
Procedure: as §1, §2

SMILES	Phytotoxicity, Soybean
CC1(COCc2ccccc2F)CC(c2ccccc2[N+](=O)[O-])=NO1 (stereo not drawn) [Reference A]	1

What follows are compounds tested on Rice (assay: Pre-emergence treatment, phytotoxicity to rice). Details: 500 g/ha, 4 weeks after spraying, scale 0 to 10 (0: no effects, 10: complete death).
Assay type: in vivo
Procedure: as §1

SMILES	Phytotoxicity, Rice
CC1(COCc2ccccc2F)CC(c2ccccc2[N+](=O)[O-])=NO1 (stereo not drawn) [Reference A]	0

These compounds were tested on Wheat (assay: Pre-emergence treatment, phytotoxicity to wheat). Details: 500 g/ha, 4 weeks after spraying, scale 0 to 10 (0: no effects, 10: complete death).
Assay type: in vivo
Procedure: as §1

SMILES	Phytotoxicity, Wheat
CC1(COCc2ccccc2F)CC(c2ccccc2[N+](=O)[O-])=NO1 (stereo not drawn) [Reference A]	0

These compounds were tested on Corn (assay: Pre-emergence treatment, phytotoxicity to corn). Details: 500 g/ha, 4 weeks after spraying, scale 0 to 10 (0: no effects, 10: complete death).
Assay type: in vivo
Procedure: as §1

SMILES	Phytotoxicity, Corn
CC1(COCc2ccccc2F)CC(c2ccccc2[N+](=O)[O-])=NO1 (stereo not drawn) [Reference A]	0

The compounds below were run on Digitaria sanguinalis (assay: Pre-emergence treatment, herbicidal efficacy on large crabgrass). Details: 62.5 g/ha, 4 weeks after spraying, scale 0 to 10.
Assay type: in vivo
Procedure: as §1

SMILES	Herbicidal efficacy, Digitaria sanguinalis
CC1(COCc2ccccc2F)CC(c2ccccc2[N+](=O)[O-])=NO1 (stereo not drawn) [Reference A]	0

Same assay, conditions: 125 g/ha, 4 weeks after spraying, scale 0 to 10

SMILES	Herbicidal efficacy, Digitaria sanguinalis
CC1(COCc2ccccc2F)CC(c2ccccc2[N+](=O)[O-])=NO1 (stereo not drawn) [Reference A]	2

Same assay, conditions: 250 g/ha, 4 weeks after spraying, scale 0 to 10

SMILES	Herbicidal efficacy, Digitaria sanguinalis
CC1(COCc2ccccc2F)CC(c2ccccc2[N+](=O)[O-])=NO1 (stereo not drawn) [Reference A]	6

Same assay, conditions: 500 g/ha, 4 weeks after spraying, scale 0 to 10

SMILES	Herbicidal efficacy, Digitaria sanguinalis
CC1(COCc2ccccc2F)CC(c2ccccc2[N+](=O)[O-])=NO1 (stereo not drawn) [Reference A]	10

The compounds below were run on Soybean (assay: Pre-emergence treatment, phytotoxicity to soybean). Details: 500 g/ha, 4 weeks after spraying, scale 0 to 10 (0: no effects, 10: complete death).
Assay type: in vivo
Procedure: as §1

SMILES	Phytotoxicity, Soybean
CC1(COCc2ccccc2F)CC(c2ccccc2[N+](=O)[O-])=NO1 (stereo not drawn) [Reference A]	0

What follows are compounds tested on Cotton (assay: Pre-emergence treatment, phytotoxicity to cotton). Details: 500 g/ha, 4 weeks after spraying, scale 0 to 10 (0: no effects, 10: complete death).
Assay type: in vivo
Procedure: as §1

SMILES	Phytotoxicity, Cotton
CC1(COCc2ccccc2F)CC(c2ccccc2[N+](=O)[O-])=NO1 (stereo not drawn) [Reference A]	0

What follows are compounds tested on Digitaria sanguinalis (assay: Post-emergence treatment, herbicidal efficacy on large crabgrass). Details: post-emergence, 125 g/ha, 4 weeks after spraying, scale 0 to 10.
Assay type: in vivo
Procedure: as §1, §2

SMILES	Herbicidal efficacy, Digitaria sanguinalis
CC1(COCc2ccccc2F)CC(c2ccccc2[N+](=O)[O-])=NO1 (stereo not drawn) [Reference A]	0

Same assay, conditions: post-emergence, 250 g/ha, 4 weeks after spraying, scale 0 to 10

SMILES	Herbicidal efficacy, Digitaria sanguinalis
CC1(COCc2ccccc2F)CC(c2ccccc2[N+](=O)[O-])=NO1 (stereo not drawn) [Reference A]	1

Same assay, conditions: post-emergence, 500 g/ha, 4 weeks after spraying, scale 0 to 10

SMILES	Herbicidal efficacy, Digitaria sanguinalis
CC1(COCc2ccccc2F)CC(c2ccccc2[N+](=O)[O-])=NO1 (stereo not drawn) [Reference A]	4

Same assay, conditions: post-emergence, 1,000 g/ha, 4 weeks after spraying, scale 0 to 10

SMILES	Herbicidal efficacy, Digitaria sanguinalis
CC1(COCc2ccccc2F)CC(c2ccccc2[N+](=O)[O-])=NO1 (stereo not drawn) [Reference A]	5

These compounds were tested on Rice (assay: Post-emergence treatment, phytotoxicity to rice). Details: post-emergence (about 3 leaf stage), 1,000 g/ha, 4 weeks after spraying, scale 0 to 10 (0: no effects, 10: complete death).
Assay type: in vivo
Procedure: as §1, §2

SMILES	Phytotoxicity, Rice
CC1(COCc2ccccc2F)CC(c2ccccc2[N+](=O)[O-])=NO1 (stereo not drawn) [Reference A]	0

What follows are compounds tested on Corn (assay: Post-emergence treatment, phytotoxicity to corn). Details: post-emergence (about 3 leaf stage), 1,000 g/ha, 4 weeks after spraying, scale 0 to 10 (0: no effects, 10: complete death).
Assay type: in vivo
Procedure: as §1, §2

SMILES	Phytotoxicity, Corn
CC1(COCc2ccccc2F)CC(c2ccccc2[N+](=O)[O-])=NO1 (stereo not drawn) [Reference A]	0

The compounds below were run on Poa annua (assay: Pre-emergence treatment, herbicidal efficacy on annual bluegrass). Details: 62.5 g/ha, 4 weeks after spraying, scale 0 to 10.
Assay type: in vivo
Procedure: as §1

SMILES	Herbicidal efficacy, Poa annua
CC1(COCc2ccccc2F)CC(c2ccccc2[N+](=O)[O-])=NO1 (stereo not drawn) [Reference A]	0

Same assay, conditions: 125 g/ha, 4 weeks after spraying, scale 0 to 10

SMILES	Herbicidal efficacy, Poa annua
CC1(COCc2ccccc2F)CC(c2ccccc2[N+](=O)[O-])=NO1 (stereo not drawn) [Reference A]	2

Same assay, conditions: 250 g/ha, 4 weeks after spraying, scale 0 to 10

SMILES	Herbicidal efficacy, Poa annua
CC1(COCc2ccccc2F)CC(c2ccccc2[N+](=O)[O-])=NO1 (stereo not drawn) [Reference A]	5

Same assay, conditions: 500 g/ha, 4 weeks after spraying, scale 0 to 10

SMILES	Herbicidal efficacy, Poa annua
CC1(COCc2ccccc2F)CC(c2ccccc2[N+](=O)[O-])=NO1 (stereo not drawn) [Reference A]	9

The compounds below were run on Poa annua (assay: Post-emergence treatment, herbicidal efficacy on annual bluegrass). Details: post-emergence, 125 g/ha, 4 weeks after spraying, scale 0 to 10.
Assay type: in vivo
Procedure: as §1, §2

SMILES	Herbicidal efficacy, Poa annua
CC1(COCc2ccccc2F)CC(c2ccccc2[N+](=O)[O-])=NO1 (stereo not drawn) [Reference A]	0

Same assay, conditions: post-emergence, 250 g/ha, 4 weeks after spraying, scale 0 to 10

SMILES	Herbicidal efficacy, Poa annua
CC1(COCc2ccccc2F)CC(c2ccccc2[N+](=O)[O-])=NO1 (stereo not drawn) [Reference A]	0

Same assay, conditions: post-emergence, 500 g/ha, 4 weeks after spraying, scale 0 to 10

SMILES	Herbicidal efficacy, Poa annua
CC1(COCc2ccccc2F)CC(c2ccccc2[N+](=O)[O-])=NO1 (stereo not drawn) [Reference A]	3

Same assay, conditions: post-emergence, 1,000 g/ha, 4 weeks after spraying, scale 0 to 10

SMILES	Herbicidal efficacy, Poa annua
CC1(COCc2ccccc2F)CC(c2ccccc2[N+](=O)[O-])=NO1 (stereo not drawn) [Reference A]	5

The compounds below were run on Alopecurus myosuroides (assay: Post-emergence treatment, herbicidal efficacy on blackgrass). Details: post-emergence, 125 g/ha, 4 weeks after spraying, scale 0 to 10.
Assay type: in vivo
Procedure: as §1, §2

SMILES	Herbicidal efficacy, Alopecurus myosuroides
CC1(COCc2ccccc2F)CC(c2ccccc2[N+](=O)[O-])=NO1 (stereo not drawn) [Reference A]	0

Same assay, conditions: post-emergence, 250 g/ha, 4 weeks after spraying, scale 0 to 10

SMILES	Herbicidal efficacy, Alopecurus myosuroides
CC1(COCc2ccccc2F)CC(c2ccccc2[N+](=O)[O-])=NO1 (stereo not drawn) [Reference A]	0

Same assay, conditions: post-emergence, 500 g/ha, 4 weeks after spraying, scale 0 to 10

SMILES	Herbicidal efficacy, Alopecurus myosuroides
CC1(COCc2ccccc2F)CC(c2ccccc2[N+](=O)[O-])=NO1 (stereo not drawn) [Reference A]	0

Same assay, conditions: post-emergence, 1,000 g/ha, 4 weeks after spraying, scale 0 to 10

SMILES	Herbicidal efficacy, Alopecurus myosuroides
CC1(COCc2ccccc2F)CC(c2ccccc2[N+](=O)[O-])=NO1 (stereo not drawn) [Reference A]	2

These compounds were tested on Echinochloa crusgalli (assay: Pre-emergence treatment, herbicidal efficacy on barnyardgrass). Details: 62.5 g/ha, 4 weeks after spraying, scale 0 to 10.
Assay type: in vivo
Procedure: as §1

SMILES	Herbicidal efficacy, Echinochloa crusgalli
CC1(COCc2ccccc2F)CC(c2ccccc2[N+](=O)[O-])=NO1 (stereo not drawn) [Reference A]	0

Same assay, conditions: 125 g/ha, 4 weeks after spraying, scale 0 to 10

SMILES	Herbicidal efficacy, Echinochloa crusgalli
CC1(COCc2ccccc2F)CC(c2ccccc2[N+](=O)[O-])=NO1 (stereo not drawn) [Reference A]	2

Same assay, conditions: 250 g/ha, 4 weeks after spraying, scale 0 to 10

SMILES	Herbicidal efficacy, Echinochloa crusgalli
CC1(COCc2ccccc2F)CC(c2ccccc2[N+](=O)[O-])=NO1 (stereo not drawn) [Reference A]	6

Same assay, conditions: 500 g/ha, 4 weeks after spraying, scale 0 to 10 (0: no effects, 10: complete death)

SMILES	Herbicidal efficacy, Echinochloa crusgalli
CC1(COCc2ccccc2F)CC(c2ccccc2[N+](=O)[O-])=NO1 (stereo not drawn) [Reference A]	10

These compounds were tested on Alopecurus myosuroides (assay: Pre-emergence treatment, herbicidal efficacy on blackgrass). Details: 62.5 g/ha, 4 weeks after spraying, scale 0 to 10.
Assay type: in vivo
Procedure: as §1

SMILES	Herbicidal efficacy, Alopecurus myosuroides
CC1(COCc2ccccc2F)CC(c2ccccc2[N+](=O)[O-])=NO1 (stereo not drawn) [Reference A]	0

Same assay, conditions: 125 g/ha, 4 weeks after spraying, scale 0 to 10

SMILES	Herbicidal efficacy, Alopecurus myosuroides
CC1(COCc2ccccc2F)CC(c2ccccc2[N+](=O)[O-])=NO1 (stereo not drawn) [Reference A]	0

Same assay, conditions: 250 g/ha, 4 weeks after spraying, scale 0 to 10

SMILES	Herbicidal efficacy, Alopecurus myosuroides
CC1(COCc2ccccc2F)CC(c2ccccc2[N+](=O)[O-])=NO1 (stereo not drawn) [Reference A]	3

Same assay, conditions: 500 g/ha, 4 weeks after spraying, scale 0 to 10

SMILES	Herbicidal efficacy, Alopecurus myosuroides
CC1(COCc2ccccc2F)CC(c2ccccc2[N+](=O)[O-])=NO1 (stereo not drawn) [Reference A]	10

Each compound was assayed on Cotton (assay: Post-emergence treatment, phytotoxicity to cotton). Details: post-emergence (about 3 leaf stage), 1,000 g/ha, 4 weeks after spraying, scale 0 to 10 (0: no effects, 10: complete death).
Assay type: in vivo
Procedure: as §1, §2

SMILES	Phytotoxicity, Cotton
CC1(COCc2ccccc2F)CC(c2ccccc2[N+](=O)[O-])=NO1 (stereo not drawn) [Reference A]	0
